Measured values as given in US9937217B2, “Method of inhibiting ABCG2 and related treatments” (The United States of America, as represented by the …, priority 2007, dated 2018).
Where “and” joins values, the source holds several entries; their conditions need not be identical. Equal values may be shown once. Read-outs that look alike come from different tables or passages of the source.

Assays:
ABCG2 [1] = biological target: T1, ABCG2 (Homo sapiens, UniProt Q9UNQ0); test: BODIPY-prazosin efflux, ABCG2-transfected HEK293 cells (flow cytometry); conditions: 10 μM compound
T1 sequence (Q9UNQ0 1-655): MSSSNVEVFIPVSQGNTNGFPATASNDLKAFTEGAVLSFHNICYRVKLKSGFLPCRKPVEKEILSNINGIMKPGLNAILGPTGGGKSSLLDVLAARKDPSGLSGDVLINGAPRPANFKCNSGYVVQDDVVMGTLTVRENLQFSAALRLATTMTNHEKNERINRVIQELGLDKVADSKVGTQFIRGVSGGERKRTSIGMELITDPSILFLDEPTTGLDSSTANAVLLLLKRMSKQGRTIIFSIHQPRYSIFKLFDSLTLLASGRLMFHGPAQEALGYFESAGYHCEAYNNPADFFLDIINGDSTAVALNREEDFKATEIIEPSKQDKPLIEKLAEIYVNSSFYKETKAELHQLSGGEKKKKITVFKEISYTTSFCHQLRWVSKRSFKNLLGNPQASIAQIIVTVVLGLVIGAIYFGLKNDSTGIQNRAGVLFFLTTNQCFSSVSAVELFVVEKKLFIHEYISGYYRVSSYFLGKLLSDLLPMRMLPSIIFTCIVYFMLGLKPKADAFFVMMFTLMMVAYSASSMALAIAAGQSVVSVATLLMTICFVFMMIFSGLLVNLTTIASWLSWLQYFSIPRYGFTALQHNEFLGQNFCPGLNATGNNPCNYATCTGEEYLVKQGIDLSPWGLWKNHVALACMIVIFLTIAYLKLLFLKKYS
Protocol: (§1) APC fluorescence is measured with a 635 nm read diode laser and 561 nm longpass filter. At least 10000 events are collected. Dead cells are eliminated based on propidium iodide exclusion.
(§2) Cells are then washed and incubated in substrate-free medium continuing with or without inhibitor for 1 h.

ABCG2 [2] = biological target: T1, ABCG2; test: Pheophorbide a (PhA) accumulation screening assay; assay type: cell-based
Protocol: (§3) To prepare the cell culture, NCI-H460 human lung non-small-cell carcinoma cells (National Cancer Institute, Frederick, Md.) are selected for over-expression of ABCG2 by maintenance in RPMI1640/10% FBS supplemented with 20 nM mitoxantrone (Robey et al., Biochim. Biophys. Acta, 1512: 171-82 (2001)). After removal of mitoxantrone, cells are further grown in the same medium without mitoxantrone for 5-30 days. These cells are designated NCI-H460/MX20. Parental cells (low ABCG2 expression) (Robey et al., vide supra) are maintained in the same medium without mitoxantrone. ABCG2-transfected or MDR1-transfected (i.e. Pgp-expressing) HEK293 cells are maintained in 2 mg/ml G418 as previously described (Robey et al., Br. J. Cancer, 89: 1971-8 (2003)). MRP1-transfected HEK293 cells are maintained in 5 μM etoposide. MCF-7 FLV1000 cells are maintained in Richter's medium with 10% FCS and Pen/strep with 1000 nM flavopiridol (Robey et al., Clin. Cancer Res., 7: 145-52 (2001)).
Accumulation of pheophorbide a, a fluorescent ABCG2 substrate (Jonker et al., Proc. Natl. Acad. Sci. USA, 99: 15649-54 (2002) and Robey et al., Cancer Res., 64: 1242-6 (2004)), formed the basis of the assay for inhibitors of ABCG2 activity (Henrich et al., J. Biomol. Screen, 11: 176-83 (2006)). Briefly, NCI-H460/MX20 cells are transferred to black wall, clear bottom 384-well polylysine-coated assay plates (Corning, Corning, N.Y.) and allowed to attach for several hours. Pheophorbide a (1 μM final concentration) is added immediately followed by compounds or vehicle (DMSO/PBS) control and incubated an additional 18 h. After removal of medium and washing with PBS containing Ca^2+ and Mg^2+, fluorescence intensity is read on a Tecan Safire fluorescence plate reader in bottom read mode, 395 nm excitation, 670 nm emission. Each plate has control wells containing 10 μM (final concentration) FTC. Data are normalized to FTC and reported as % of FTC fluorescence.

ABCG2 [3] = biological target: T1, ABCG2; assay type: cell-based; conditions: compound, ABCG2-transfected HEK293
Protocol: At least 10000 events are collected. Dead cells are eliminated based on propidium iodide exclusion.
Five compounds are examined for their ability to increase surface staining of the 5D3 antibody.
The 5D3 shift assay is performed as described by Ozvegy-Laczka et al. with minor modifications. […] Cells are subsequently washed and incubated with APC-labeled goat anti-mouse secondary antibody (1:35) for 30 min after which the cells are washed and analyzed.

ABCG2 [4] = biological target: T1, ABCG2; test: Photoaffinity labeling of ABCG2 with [125I]-IAAP in MCF-7 FLV1000 membranes; assay type: binding; conditions: 20 μM compound; for activity at 10 min, 20 µM: human, crude membranes of MCF-7 FLV1000 cells expressing ABCG2, pH 7.5, probe [125I]-IAAP, 3-6 nM (2200 Ci/mmole), read-out: Blocking of 125I-IAAP binding: % of control binding
Protocol: ABCG2 expressed in MCF-7 FLV1000 cells is photo-labeled with [^125I]-IAAP as described previously (Shukla et al., Biochemistry, 45: 8940-51 (2006)). Briefly, crude membranes (1 mg protein/me of MCF-7 FLV1000 cells are incubated with 20 μM of the indicated compound for 10 min at room temperature in 50 mM Tris-HCl, pH 7.5. 3-6 nM [^125I]-IAAP (2200 Ci/mmole) (PerkinElmer Life Sciences, Wellesley, Mass.) is added, and the samples are incubated for an additional 5 min under subdued light. The samples are then exposed to ultraviolet (UV, 365 nm) light for 10 min, and the labeled ABCG2 is immunoprecipitated using BXP-21 antibody. The radioactivity incorporated into the ABCG2 band is quantified using the STORM 860 PhosphorImager system (Molecular Dynamics, Sunnyvale, Calif.) and ImageQuaNT software (Molecular Dynamics).

MRP1 = biological target: T2, MRP1 (Homo sapiens, UniProt P33527); test: Calcein efflux, MRP1-transfected HEK293 cells (flow cytometry); assay type: cell-based; conditions: 10 μM compound
T2 construct: expressed in transfected cells; host or cells: HEK293
T2 sequence (P33527 whole entry): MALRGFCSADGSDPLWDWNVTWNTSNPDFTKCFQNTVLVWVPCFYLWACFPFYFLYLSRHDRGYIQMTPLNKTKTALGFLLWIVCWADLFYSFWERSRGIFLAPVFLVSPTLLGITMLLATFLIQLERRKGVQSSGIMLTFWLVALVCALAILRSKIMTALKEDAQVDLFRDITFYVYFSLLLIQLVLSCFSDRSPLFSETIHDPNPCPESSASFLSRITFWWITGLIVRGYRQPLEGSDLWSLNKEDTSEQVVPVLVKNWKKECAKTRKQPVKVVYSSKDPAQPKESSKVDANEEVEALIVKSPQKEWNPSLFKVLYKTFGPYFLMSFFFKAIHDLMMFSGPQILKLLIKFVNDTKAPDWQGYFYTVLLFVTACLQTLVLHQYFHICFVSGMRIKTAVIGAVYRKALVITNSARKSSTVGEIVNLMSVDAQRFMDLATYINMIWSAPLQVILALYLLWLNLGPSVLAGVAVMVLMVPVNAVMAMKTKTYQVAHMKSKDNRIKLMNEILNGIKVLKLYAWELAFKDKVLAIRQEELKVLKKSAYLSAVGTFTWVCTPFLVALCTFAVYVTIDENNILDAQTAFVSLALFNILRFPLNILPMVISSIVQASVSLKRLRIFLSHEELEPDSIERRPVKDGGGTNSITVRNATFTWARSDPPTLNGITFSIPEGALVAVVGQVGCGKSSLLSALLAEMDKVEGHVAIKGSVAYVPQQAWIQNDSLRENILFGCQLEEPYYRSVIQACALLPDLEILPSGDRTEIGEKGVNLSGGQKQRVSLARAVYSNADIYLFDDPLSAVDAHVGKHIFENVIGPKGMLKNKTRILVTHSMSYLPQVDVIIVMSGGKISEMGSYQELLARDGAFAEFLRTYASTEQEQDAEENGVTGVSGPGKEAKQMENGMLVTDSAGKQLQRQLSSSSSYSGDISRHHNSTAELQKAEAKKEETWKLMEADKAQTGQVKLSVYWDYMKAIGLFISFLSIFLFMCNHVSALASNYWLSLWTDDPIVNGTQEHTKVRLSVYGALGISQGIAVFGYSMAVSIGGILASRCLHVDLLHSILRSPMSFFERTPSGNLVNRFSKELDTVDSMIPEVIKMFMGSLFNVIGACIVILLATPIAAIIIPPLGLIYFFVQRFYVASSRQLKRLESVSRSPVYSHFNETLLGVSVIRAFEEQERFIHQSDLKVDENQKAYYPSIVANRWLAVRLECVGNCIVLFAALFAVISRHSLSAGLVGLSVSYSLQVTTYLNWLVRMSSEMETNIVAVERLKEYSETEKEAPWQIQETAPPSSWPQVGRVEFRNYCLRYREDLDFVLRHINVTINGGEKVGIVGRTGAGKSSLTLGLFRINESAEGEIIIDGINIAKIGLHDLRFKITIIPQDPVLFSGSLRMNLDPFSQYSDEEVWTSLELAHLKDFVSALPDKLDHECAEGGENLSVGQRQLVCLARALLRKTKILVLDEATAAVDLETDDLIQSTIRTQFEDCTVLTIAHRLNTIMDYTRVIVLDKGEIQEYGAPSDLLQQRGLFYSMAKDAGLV
Protocol: as §1, §2

NCI-H460/MX20 cells = test: Sensitization of ABCG2-overexpressing cells to killing by mitoxantrone (XTT assay); assay type: cell-based, human; conditions: for MX sensitization: % NCI-H460/MX20 cell survival in the presence of compound and mitoxantrone: 10 μM compound
Protocol: After removal of mitoxantrone, cells are further grown in the same medium without mitoxantrone for 5-30 days. These cells are designated NCI-H460/MX20. Parental cells (low ABCG2 expression) (Robey et al., vide supra) are maintained in the same medium without mitoxantrone. […] MRP1-transfected HEK293 cells are maintained in 5 μM etoposide.
Final DMSO concentration is 0.2% (v/v).

Pgp = Pgp (Homo sapiens, UniProt P08183)
Sequence of Pgp (P08183 whole entry): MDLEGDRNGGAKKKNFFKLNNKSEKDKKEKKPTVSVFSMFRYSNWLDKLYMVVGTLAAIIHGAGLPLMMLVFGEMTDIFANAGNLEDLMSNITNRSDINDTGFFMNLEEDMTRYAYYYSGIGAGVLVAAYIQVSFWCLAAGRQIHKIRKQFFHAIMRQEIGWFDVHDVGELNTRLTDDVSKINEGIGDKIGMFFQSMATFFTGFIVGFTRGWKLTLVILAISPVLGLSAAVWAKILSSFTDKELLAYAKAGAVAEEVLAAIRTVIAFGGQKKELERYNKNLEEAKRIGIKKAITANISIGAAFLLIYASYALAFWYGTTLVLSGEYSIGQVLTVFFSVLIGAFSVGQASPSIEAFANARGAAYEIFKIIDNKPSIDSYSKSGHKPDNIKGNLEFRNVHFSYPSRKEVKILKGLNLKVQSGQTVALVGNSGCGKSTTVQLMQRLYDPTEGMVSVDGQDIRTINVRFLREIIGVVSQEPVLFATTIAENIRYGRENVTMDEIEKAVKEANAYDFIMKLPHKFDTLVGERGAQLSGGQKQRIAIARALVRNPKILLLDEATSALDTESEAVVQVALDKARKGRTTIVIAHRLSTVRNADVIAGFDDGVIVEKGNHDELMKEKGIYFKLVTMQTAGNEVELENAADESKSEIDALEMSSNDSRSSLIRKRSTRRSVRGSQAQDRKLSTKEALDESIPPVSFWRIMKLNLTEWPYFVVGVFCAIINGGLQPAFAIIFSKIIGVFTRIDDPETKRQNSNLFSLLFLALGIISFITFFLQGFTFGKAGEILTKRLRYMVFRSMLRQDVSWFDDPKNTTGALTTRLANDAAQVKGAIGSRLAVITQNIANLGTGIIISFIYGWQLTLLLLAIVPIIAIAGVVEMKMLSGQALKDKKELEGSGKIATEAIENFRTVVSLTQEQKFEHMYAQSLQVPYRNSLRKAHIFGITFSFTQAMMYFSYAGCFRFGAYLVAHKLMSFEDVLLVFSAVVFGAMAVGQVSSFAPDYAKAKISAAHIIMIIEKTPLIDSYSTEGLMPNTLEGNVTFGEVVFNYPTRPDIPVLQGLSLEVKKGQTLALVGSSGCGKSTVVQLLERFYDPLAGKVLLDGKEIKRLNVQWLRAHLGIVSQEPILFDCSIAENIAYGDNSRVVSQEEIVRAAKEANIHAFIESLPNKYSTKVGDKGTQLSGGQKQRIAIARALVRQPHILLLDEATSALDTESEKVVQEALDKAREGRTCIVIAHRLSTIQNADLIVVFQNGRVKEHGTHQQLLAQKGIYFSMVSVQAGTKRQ
Protocol: as §1, §2

ABCG2 [5] = biological target: T1, ABCG2; conditions: NCI-H460/MX20 cells; Henrich et al., 2006; read-out: Pheophorbide a IC50 for FTC; cited from earlier work
NCI-H460 cells = test: Mitoxantrone / compound cytotoxicity in parental cells (XTT assay); assay type: cell-based; conditions: Homo sapiens, 48 h; unselected NCI-H460 cells, 30 μM mitoxantrone, 2 days, (sd); read-out: Cell numbers, % of control (vehicle), mitoxantrone alone
Protocol: as §3
The ability of compounds to sensitize NCI-H460/MX20 cells to killing by mitoxantrone is assessed as described in Henrich et al. (J. Biomol. Screen, 11: 176-83 (2006)). ABCG2 over-expressing cells or parental cells are treated with mitoxantrone in the presence or absence of 10 μM compound (or 1 μM FTC) and cell numbers assessed after 2 d by an XTT assay (Scudiero et al., Cancer Res., 48: 4827-33 (1988)). […]

[6] = NCI-H460/MX20 cells, PhA accumulation, read-out: Pheophorbide a IC50

Row | SMILES | BODIPY-prazosin efflux: treated/control ratio (ABCG2 [1]) | IC50 (ABCG2 [2]; [6]) [µM] | Pheophorbide a total, % of FTC response (ABCG2 [2]; human, 18 h, 10 µM) [%] | 5D3 staining: treated/control ratio (ABCG2 [3]) | activity at 10 min, 20 µM (ABCG2 [4]) [%] | MRP1 inhibition, calcein efflux: treated/control ratio (MRP1) | MX sensitization: % NCI-H460/MX20 cell survival in the presence of compound and mitoxantrone (NCI-H460/MX20 cells; 30 μM mitoxantrone, 2 d) [%] | Pgp inhibition, rhodamine efflux: treated/control ratio (Pgp; human, 10 µM) | IC50 (ABCG2 [2]) [µM] | Pheophorbide a total, % of FTC response (ABCG2 [2]; 10 μM compound, NCI-H460/MX20 cells, normalized to 10 μM FTC) [%] | IC50 (ABCG2 [5]) [µM] | Blocking of 125I-IAAP binding: % of control binding (ABCG2 [4]) [%] | MX sensitization: % NCI-H460/MX20 cell survival in the presence of FTC and mitoxantrone (NCI-H460/MX20 cells; 1 μM FTC, 30 μM mitoxantrone, 2 d) | Pgp inhibition, rhodamine efflux: treated/control ratio (Pgp; valspodar 3 μg/mL, positive control) | activity at 30 µM (NCI-H460 cells) [%] | Cell number, % of control, mitoxantrone alone (NCI-H460/MX20 cells; NCI-H460/MX20 cells, mitoxantrone treatment, (sd)) [%]
1 | Cn1ncc2c(NCCc3ccccc3)nc(Cl)nc21 [NSC19139] | 3.5 | 2.6 | 76.6 | 3.6 | 33.5 | 1.3 | 30.0 | 0.77 |  |  |  |  |  |  |  | 
2 | Cc1cc(O)nc2cc3oc4ccccc4c3cc12 [NSC375985] | 3.6 |  | 63.8 | 3.2 | 48.7 | 1.8 | 27.6 | 0.84 | 3.7 |  |  |  |  |  |  | 
3 | COc1ccc2c3c([nH]c2c1)[C@H](C=C(C)C)N1C(=O)[C@@H]2CCCN2C(=O)[C@@H]1C3 [FTC, fumitremorgin C, reference compound] | 3.5 |  |  | 3.7 |  |  |  |  |  | 100 | 0.8 | 32.7 | 24.5±1.5% and 24.5% |  |  | 
4 | C/C=C/C[C@@H](C)C(=O)[C@H]1C(=O)N[C@@H](C(C)C)C(=O)N(C)CC(=O)N(C)[C@@H](CC(C)C)C(=O)N[C@@H](C(C)C)C(=O)N(C)[C@@H](CC(C)C)C(=O)N[C@@H](C)C(=O)N[C@H](C)C(=O)N(C)[C@@H](CC(C)C)C(=O)N(C)[C@@H](CC(C)C)C(=O)N(C)[C@@H](C(C)C)C(=O)N1C [valspodar, reference compound] |  |  |  |  |  |  |  |  |  |  |  |  |  | 14.9 |  | 
5 | O=C1c2c(O)ccc(O)c2C(=O)c2c(NCCNCCO)ccc(NCCNCCO)c21 [mitoxantrone, reference compound] |  |  |  |  |  |  |  |  |  |  |  |  |  |  | 21.6 ± 1.6 | 56.1±2.1
6 | Cn1ncc2c(Nc3cccc(Cl)c3)nc(Nc3cccc(Cl)c3)nc21 [NSC11668] | 5.9 |  | 84.1 | 4.0 | 24.6 | 1.2 | 21.9 | 0.73 | 4.5 |  |  |  |  |  |  | 
7 | COc1cc2c[n+](C)c3c4cc(OC)c(OC)cc4ccc3c2cc1OC [NSC168201] | 2.6 | 3.9 | 104.5 | 3.7 | 34.2 | 0.81 | 21.2 | 0.64 |  |  |  |  |  |  |  | 
8 | O=C(O)c1ccc(/C=N/N=C2c3ccccc3-c3ccccc32)cc1 [NSC120688] | 2.0 | 4.3 | 67.2 | 3.7 | 19.1 | 0.81 | 20.9 | 0.84 |  |  |  |  |  |  |  | 
